Patent US7728146B2, “Enzyme inhibitors” (Probiodrug AG, priority 2006, dated 2010)
“Also recorded” adds a separate entry of the source. Like-named read-outs stand apart in the source and are kept apart here.

Assays:
[1] = tested on: liver cell carcinoma cell line Hep-G2; test: Cytotoxicity screening and LD50 determination on Hep-G2 (LDH, CytoTox-One); type: cell-based; conditions: 100 μM, Hep-G2
Protocol: Cytotoxicity of the compounds may be screened using the liver cell carcinoma cell line Hep-G2.
After 24 h of cultivation in a 96 well plate (50 000 cells/well) compounds (dissolved in DMSO) are added and cytotoxicity and vitality of the cells are analysed after another 24 h of cultivation using the CytoTox-One Homogenoeous membrane toxicity assay (Promega).
Three concentrations (100 μM, 2 μM, 40 nM) of each compound are analysed in triplicates. The final DMSO concentration was 1%.
For cytotoxicity the LDH activity in the cell culture media after 24 h of incubation are analysed. The untreated control is set to 0% cytotoxicity. For the 100% value LDH activity of lysed untreated cells are analysed.
For viability cell culture media are removed from the cells and all cells are lysed using the lysis buffer. LDH activity is determined and untreated control is set to 100% viability.
For determination of LD50 the liver carcinoma cell line HEP-G2 and the neuroblastoma cell line SY5Y may be used. The effect of 8 serial dilutions of the compounds (highest concentration 1 mM) is investigated as described above.
The cytotoxicity of certain example compounds (in each case prepared by preparative synthesis) was screened using Hep-G2 cells. Compounds were tested in concentrations of 100 μM, 2 μM and 40 nM.

DP IV = DP IV (Homo sapiens, UniProt P27487); test: DP IV inhibition IC50, parallel-synthesis compounds tested directly following synthesis (without purification); type: biochemical; parameters: IC50 DP4; other: tested directly following parallel synthesis, without purification; compounds of formula (Ib) from parallel synthesis, tested directly following synthesis
Outline: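 IC50 came from a 4-parameter fit of residual activity (linear 405 nm slopes for pNA release over ~18 min, relative to solvent-only wells). Gly-Pro-pNA was the substrate, cleaved by porcine kidney or recombinant human DP IV at room temperature in HEPES with 5% DMSO; duplicate 1:2 series started at 100 μM final.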

[2] = DP IV inhibition, compounds of formula (Ib) from parallel synthesis, tested directly following synthesis (without purification), read-out: IC50
[3] = tested directly following parallel synthesis, without purification, read-out: IC50 DP4

SMILES | IC50 (DP IV; [3]) [µM] | cytotoxic effects (summary in words) [1] | IC50 (DP IV; [2]) [µM]
NCc1c(-c2ccc(Cl)cc2Cl)ncn1CCc1c[nH]c2ccccc12 [Example 1b, C-{5-(2,4-Dichloro-phenyl)-3-[2-(1H-indol-3-yl)-ethyl]-3H-imidazol-4-yl}-methylamine] |  | Strong cytotoxic effects | 3.7
CC(N)c1c(-c2ccc(Cl)cc2Cl)ncn1CCc1ccccc1 (stereo not drawn) [Example 2b, 1-[5-(2,4-Dichloro-phenyl)-3-phenethyl-3H-imidazol-4-yl]-ethylamine] |  | No cytotoxic effects | 32.5
CC(C)CCn1cnc(-c2ccc(Cl)cc2Cl)c1CN [Example 7b, C-[5-(2,4-Dichloro-phenyl)-3-(3-methyl-butyl)-3H-imidazol-4-yl]-methylamine] |  | Strong cytotoxic effects; also recorded: strongest cytotoxicity | 8.2
COc1ccc(Cn2cnc(-c3ccc(Cl)cc3Cl)c2CN)c(OC)c1 [Example 8b, C-[5-(2,4-Dichloro-phenyl)-3-(2,4-dimethoxy-benzyl)-3H-imidazol-4-yl]-methylamine] |  | No cytotoxic effects | 12.7
CCCCCn1cnc(-c2ccc(Cl)cc2Cl)c1CN [Example 12b, C-[5-(2,4-Dichloro-phenyl)-3-pentyl-3H-imidazol-4-yl]-methylamine] |  | No cytotoxic effects | 6.4
NCc1c(-c2ccc(Cl)cc2Cl)ncn1CC12CC3CC(CC(C3)C1)C2 [Example 14b, C-[3-Adamantan-1-ylmethyl-5-(2,4-dichloro-phenyl)-3H-imidazol-4-yl]-methylamine] |  | No cytotoxic effects | 19
Cc1ccccc1Cn1cnc(-c2ccc(Cl)cc2Cl)c1C(C)N (stereo not drawn) [Example 15b, 1-[5-(2,4-Dichloro-phenyl)-3-(2-methyl-benzyl)-3H-imidazol-4-yl]-ethylamine] |  | No cytotoxic effects | 19
Cc1ccc(-c2ncn(Cc3ccccc3)c2CN)c(C)c1 [Example 69a, C-[3-Benzyl-5-(2,4-di-methyl-phenyl)-3H-imid-azol-4-yl]-methyl-amine] | 40.6 |  | 
NCc1c(-c2ccc(F)cc2F)ncn1Cc1ccc(F)cc1 [Example 74a, C-[5-(2,4-Difluoro-phenyl)-3-(4-fluoro-benzyl)-3H-imid-azol-4-yl]-methyl-amine] | 44.2 |  | 
NCc1c(-c2ccc(F)cc2F)ncn1Cc1ccc(F)cc1F [Example 76a, C-[3-(2,4-Difluoro-benzyl)-5-(2,4-difluoro-phenyl)-3H-imid-azol-4-yl]-methyl-amine] | 40.6 |  | 
NCc1c(-c2ccc(F)cc2F)ncn1Cc1cccc(F)c1 [Example 78a, C-[5-(2,4-Difluoro-phenyl)-3-(3-fluoro-benzyl)-3H-imid-azol-4-yl]-methyl-amine] | 46 |  | 
NCc1c(-c2ccc(F)cc2F)ncn1Cc1ccc2c(c1)OCO2 [Example 81a, C-[3-Ben-zo[1,3]di-oxol-5-yl-methyl-5-(2,4-difluoro-phenyl)-3H-imid-azol-4-yl]-methyl-amine] | 46.9 |  | 
NCc1c(-c2ccc(F)cc2F)ncn1Cc1cc(F)ccc1F [Example 85a, C-[3-(2,5-Difluoro-benzyl)-5-(2,4-difluoro-phenyl)-3H-imid-azol-4-yl]-methyl-amine] | 36.1 |  | 
NCc1c(-c2ccc(F)cc2F)ncn1Cc1ccccc1F [Example 86a, C-[5-(2,4-Difluoro-phenyl)-3-(2-fluoro-benzyl)-3H-imid-azol-4-yl]-methyl-amine] | 32.5 |  | 
NCc1c(-c2ccc(Cl)cc2Cl)ncn1Cc1ccc(F)c(F)c1 [Example 92b, C-[5-(2,4-dichloro-phenyl)-3-(3,4-difluoro-benzyl)-3H-imidazol-4-yl]-methylamine] |  |  | 1

The remaining compounds from weak to strong by IC50 (DP IV; [3]), led by results:

IC50 (DP IV; [3]) [µM] | SMILES | cytotoxic effects (summary in words) [1] | IC50 (DP IV; [2]) [µM]
32.5 | NCc1c(-c2ccc(F)cc2F)ncn1Cc1cc(Br)ccc1F [Example 79a, C-[3-(5-Bro-mo-2-fluoro-benzyl)-5-(2,4-difluoro-phenyl)-3H-imid-azol-4-yl]-methyl-amine] |  | 
30.7 | COc1ccc(-c2ncn(Cc3cc(Br)ccc3F)c2CN)c(C)c1 [Example 71a, C-[3-(5-Bro-mo-2-fluoro-benzyl)-5-(4-meth-oxy-2-methyl-phenyl)-3H-imid-azol-4-yl]-methyl-amine] |  | 
29.8 | NCc1c(-c2ccc(F)cc2F)ncn1Cc1ccccn1 [Example 88a, C-[5-(2,4-Difluoro-phenyl)-3-pyri-din-2-yl-methyl-3H-imid-azol-4-yl]-methyl-amine] |  | 
28.9 | NCc1c(-c2ccc(F)cc2F)ncn1Cc1cccc(C(F)(F)F)c1 [Example 75a, C-[5-(2,4-Difluoro-phenyl)-3-(3-tri-fluoromethyl-benzyl)-3H-imid-azol-4-yl]-methyl-amine] |  | 
27.1 | NCc1c(-c2ccc(F)cc2F)ncn1Cc1ccccc1Cl [Example 73a, C-[3-(2-Chloro-benzyl)-5-(2,4-difluoro-phenyl)-3H-imid-azol-4-yl]-methyl-amine] |  | 
27.1 | CC(C)(C)Cn1cnc(-c2ccc(F)cc2F)c1CN [Example 83a, C-[5-(2,4-Difluoro-phenyl)-3-(2,2-dimethyl-propyl)-3H-imid-azol-4-yl]-methyl-amine] |  | 
25.3 | NCc1c(-c2ccc(F)cc2F)ncn1Cc1ccc(F)cc1Cl [Example 87a, C-[3-(2-Chloro-4-fluoro-benzyl)-5-(2,4-difluoro-phenyl)-3H-imid-azol-4-yl]-methyl-amine] |  | 
24.4 | COc1cccc(Cn2cnc(-c3ccc(F)cc3F)c2CN)c1 [Example 77a, C-[5-(2,4-Difluoro-phenyl)-3-(3-methoxy-benzyl)-3H-imid-azol-4-yl]-methyl-amine] |  | 
22.6 | NCc1c(-c2ccc(F)cc2F)ncn1Cc1cccnc1 [Example 89a, C-[5-(2,4-Difluoro-phenyl)-3-pyri-din-3-yl-methyl-3H-imid-azol-4-yl]-methyl-amine] |  | 
19.9 | NCc1c(-c2ccc(F)cc2F)ncn1Cc1ccccc1 [Example 80a, C-[3-Benzyl-5-(2,4-di-fluoro-phenyl)-3H-imid-azol-4-yl]-methyl-amine] |  | 
16.3 | CCOc1ccccc1Cn1cnc(-c2ccc(C)cc2C)c1CN [Example 70a, C-[5-(2,4-Dimethyl-phenyl)-3-(2-ethoxy-benzyl)-3H-imid-azol-4-yl]-methyl-amine] |  | 
14.5 | CCOc1ccccc1Cn1cnc(-c2ccc(F)cc2F)c1CN [Example 82a, C-[5-(2,4-Difluoro-phenyl)-3-(2-ethoxy-benzyl)-3H-imid-azol-4-yl]-methyl-amine] |  | 
11.8 | NCc1c(-c2ccc(F)cc2F)ncn1Cc1ccco1 [Example 72a, C-[5-(2,4-Difluoro-phenyl)-3-furan-2-ylmethyl-3H-imidazol-4-yl]-methylamine] |  | 
9.1 | NCc1c(-c2ccc(F)cc2F)ncn1Cc1ccccc1OC(F)(F)F [Example 84a, C-[5-(2,4-Difluoro-phenyl)-3-(2-trifluoromethoxy-benzyl)-3H-imidazol-4-yl]-methylamine] |  | 
